Tests used:
Type in all cases: cell-based
[1] = target: T1, proteins of HEK293T cells transiently overexpressing caspase-6 (Homo sapiens, UniProt O00567); conditions: exp_ref Probe; protein NOP56 (O00567); analysis C6
T1 sequence (O00567 1-594): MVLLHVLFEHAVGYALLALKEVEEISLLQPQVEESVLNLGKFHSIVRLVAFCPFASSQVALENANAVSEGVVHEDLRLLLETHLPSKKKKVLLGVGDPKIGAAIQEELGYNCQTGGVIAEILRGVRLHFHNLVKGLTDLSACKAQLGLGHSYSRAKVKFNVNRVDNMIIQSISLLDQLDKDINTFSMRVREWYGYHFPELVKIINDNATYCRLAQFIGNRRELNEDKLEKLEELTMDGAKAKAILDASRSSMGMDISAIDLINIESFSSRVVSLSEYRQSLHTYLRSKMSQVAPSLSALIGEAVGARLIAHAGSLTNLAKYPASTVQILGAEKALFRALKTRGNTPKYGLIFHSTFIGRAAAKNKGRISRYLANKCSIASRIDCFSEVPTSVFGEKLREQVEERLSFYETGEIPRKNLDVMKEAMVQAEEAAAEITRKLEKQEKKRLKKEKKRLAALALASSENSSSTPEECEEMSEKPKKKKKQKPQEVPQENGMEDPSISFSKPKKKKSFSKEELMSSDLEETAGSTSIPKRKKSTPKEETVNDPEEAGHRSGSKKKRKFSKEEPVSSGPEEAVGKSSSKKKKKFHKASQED

[2] = target: T2, proteins of HEK293T cells transiently overexpressing caspase-6 (Homo sapiens, UniProt P05165)
T2 sequence (P05165 53-728): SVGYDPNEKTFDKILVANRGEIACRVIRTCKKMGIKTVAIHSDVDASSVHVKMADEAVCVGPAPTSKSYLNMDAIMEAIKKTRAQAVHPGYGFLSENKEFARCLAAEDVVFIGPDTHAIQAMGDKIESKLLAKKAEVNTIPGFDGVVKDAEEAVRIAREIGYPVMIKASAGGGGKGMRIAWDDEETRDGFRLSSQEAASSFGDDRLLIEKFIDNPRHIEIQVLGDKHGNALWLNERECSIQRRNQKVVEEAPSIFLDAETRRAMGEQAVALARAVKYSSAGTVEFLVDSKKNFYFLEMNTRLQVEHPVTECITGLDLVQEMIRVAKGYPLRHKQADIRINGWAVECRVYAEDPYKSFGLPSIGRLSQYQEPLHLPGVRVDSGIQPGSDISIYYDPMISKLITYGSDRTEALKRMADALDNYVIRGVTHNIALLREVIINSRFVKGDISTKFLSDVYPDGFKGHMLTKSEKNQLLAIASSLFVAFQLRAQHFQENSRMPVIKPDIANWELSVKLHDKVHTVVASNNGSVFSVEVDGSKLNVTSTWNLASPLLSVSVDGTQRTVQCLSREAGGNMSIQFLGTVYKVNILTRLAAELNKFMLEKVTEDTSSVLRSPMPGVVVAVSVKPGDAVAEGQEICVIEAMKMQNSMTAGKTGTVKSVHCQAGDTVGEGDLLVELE

[3] = target: proteins of HEK293T cells transiently overexpressing caspase-6 (Homo sapiens, UniProt P10599); conditions: exp_ref Probe; protein TXN (P10599); analysis C6
proteins of HEK293T cells transiently overexpressing caspase-6 (Homo sapiens, UniProt P10599), sequence (P10599 whole entry): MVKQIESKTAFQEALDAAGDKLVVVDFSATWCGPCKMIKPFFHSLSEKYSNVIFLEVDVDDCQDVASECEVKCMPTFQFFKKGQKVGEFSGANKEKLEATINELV

[4] = target: proteins of HEK293T cells transiently overexpressing caspase-6 (Homo sapiens, UniProt P11142); conditions: protein HSPA8 (P11142)
proteins of HEK293T cells transiently overexpressing caspase-6 (Homo sapiens, UniProt P11142), sequence (P11142 whole entry): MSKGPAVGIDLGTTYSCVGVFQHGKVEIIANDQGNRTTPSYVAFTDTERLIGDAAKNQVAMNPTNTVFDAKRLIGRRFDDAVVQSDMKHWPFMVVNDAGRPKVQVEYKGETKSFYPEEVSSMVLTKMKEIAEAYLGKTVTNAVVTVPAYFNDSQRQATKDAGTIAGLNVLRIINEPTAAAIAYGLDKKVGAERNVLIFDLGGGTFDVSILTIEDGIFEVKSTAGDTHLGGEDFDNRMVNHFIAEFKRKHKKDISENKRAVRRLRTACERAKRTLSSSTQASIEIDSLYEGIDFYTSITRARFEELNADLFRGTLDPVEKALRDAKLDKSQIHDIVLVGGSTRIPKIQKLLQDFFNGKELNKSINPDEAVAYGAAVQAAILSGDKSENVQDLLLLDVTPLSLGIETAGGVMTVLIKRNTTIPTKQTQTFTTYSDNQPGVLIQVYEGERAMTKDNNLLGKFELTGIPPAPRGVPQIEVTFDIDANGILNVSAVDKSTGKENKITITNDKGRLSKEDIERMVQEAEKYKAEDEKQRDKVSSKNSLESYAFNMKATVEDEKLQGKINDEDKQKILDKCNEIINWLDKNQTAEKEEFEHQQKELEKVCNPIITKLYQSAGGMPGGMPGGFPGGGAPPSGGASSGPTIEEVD

[5] = target: proteins of HEK293T cells transiently overexpressing caspase-6 (Homo sapiens, UniProt P22087); conditions: exp_ref Probe; protein FBL (P22087); analysis C6
proteins of HEK293T cells transiently overexpressing caspase-6 (Homo sapiens, UniProt P22087), sequence (P22087 whole entry): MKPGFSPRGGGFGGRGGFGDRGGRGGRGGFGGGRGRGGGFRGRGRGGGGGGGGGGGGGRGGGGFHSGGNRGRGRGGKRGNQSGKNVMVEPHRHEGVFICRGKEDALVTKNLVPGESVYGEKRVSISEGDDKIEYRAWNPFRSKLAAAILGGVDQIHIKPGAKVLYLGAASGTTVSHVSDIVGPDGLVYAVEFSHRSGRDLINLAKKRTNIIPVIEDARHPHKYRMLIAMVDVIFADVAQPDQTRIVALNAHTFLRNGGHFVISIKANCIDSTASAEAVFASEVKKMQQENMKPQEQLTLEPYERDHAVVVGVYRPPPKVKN

[6] = target: proteins of HEK293T cells transiently overexpressing caspase-6 (Homo sapiens, UniProt P25205); conditions: exp_ref Probe; protein MCM3 (P25205); analysis C6
proteins of HEK293T cells transiently overexpressing caspase-6 (Homo sapiens, UniProt P25205), sequence (P25205 whole entry): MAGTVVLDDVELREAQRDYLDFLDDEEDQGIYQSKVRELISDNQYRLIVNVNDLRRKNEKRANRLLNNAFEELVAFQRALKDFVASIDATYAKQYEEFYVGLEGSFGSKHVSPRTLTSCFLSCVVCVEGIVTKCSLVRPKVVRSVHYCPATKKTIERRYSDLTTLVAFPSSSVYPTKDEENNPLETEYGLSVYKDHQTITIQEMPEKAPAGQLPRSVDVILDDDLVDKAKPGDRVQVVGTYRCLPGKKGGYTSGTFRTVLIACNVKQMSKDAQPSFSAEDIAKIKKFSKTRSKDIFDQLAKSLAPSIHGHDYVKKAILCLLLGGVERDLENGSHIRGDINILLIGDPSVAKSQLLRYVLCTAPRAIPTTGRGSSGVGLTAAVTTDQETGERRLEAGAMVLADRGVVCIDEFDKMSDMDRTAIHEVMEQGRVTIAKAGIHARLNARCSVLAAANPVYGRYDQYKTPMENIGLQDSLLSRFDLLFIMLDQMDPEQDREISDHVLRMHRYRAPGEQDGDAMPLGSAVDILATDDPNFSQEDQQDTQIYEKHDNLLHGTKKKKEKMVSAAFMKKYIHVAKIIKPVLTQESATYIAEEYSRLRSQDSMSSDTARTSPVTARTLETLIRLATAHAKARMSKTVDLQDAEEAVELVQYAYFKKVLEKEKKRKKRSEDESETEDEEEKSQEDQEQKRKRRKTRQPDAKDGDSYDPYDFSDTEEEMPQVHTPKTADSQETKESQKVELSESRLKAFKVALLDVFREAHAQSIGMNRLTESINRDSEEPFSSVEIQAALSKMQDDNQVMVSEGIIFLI

[7] = target: proteins of HEK293T cells transiently overexpressing caspase-6 (Homo sapiens, UniProt P26640); conditions: Probe; protein VARS P26640
proteins of HEK293T cells transiently overexpressing caspase-6 (Homo sapiens, UniProt P26640), sequence (P26640 whole entry): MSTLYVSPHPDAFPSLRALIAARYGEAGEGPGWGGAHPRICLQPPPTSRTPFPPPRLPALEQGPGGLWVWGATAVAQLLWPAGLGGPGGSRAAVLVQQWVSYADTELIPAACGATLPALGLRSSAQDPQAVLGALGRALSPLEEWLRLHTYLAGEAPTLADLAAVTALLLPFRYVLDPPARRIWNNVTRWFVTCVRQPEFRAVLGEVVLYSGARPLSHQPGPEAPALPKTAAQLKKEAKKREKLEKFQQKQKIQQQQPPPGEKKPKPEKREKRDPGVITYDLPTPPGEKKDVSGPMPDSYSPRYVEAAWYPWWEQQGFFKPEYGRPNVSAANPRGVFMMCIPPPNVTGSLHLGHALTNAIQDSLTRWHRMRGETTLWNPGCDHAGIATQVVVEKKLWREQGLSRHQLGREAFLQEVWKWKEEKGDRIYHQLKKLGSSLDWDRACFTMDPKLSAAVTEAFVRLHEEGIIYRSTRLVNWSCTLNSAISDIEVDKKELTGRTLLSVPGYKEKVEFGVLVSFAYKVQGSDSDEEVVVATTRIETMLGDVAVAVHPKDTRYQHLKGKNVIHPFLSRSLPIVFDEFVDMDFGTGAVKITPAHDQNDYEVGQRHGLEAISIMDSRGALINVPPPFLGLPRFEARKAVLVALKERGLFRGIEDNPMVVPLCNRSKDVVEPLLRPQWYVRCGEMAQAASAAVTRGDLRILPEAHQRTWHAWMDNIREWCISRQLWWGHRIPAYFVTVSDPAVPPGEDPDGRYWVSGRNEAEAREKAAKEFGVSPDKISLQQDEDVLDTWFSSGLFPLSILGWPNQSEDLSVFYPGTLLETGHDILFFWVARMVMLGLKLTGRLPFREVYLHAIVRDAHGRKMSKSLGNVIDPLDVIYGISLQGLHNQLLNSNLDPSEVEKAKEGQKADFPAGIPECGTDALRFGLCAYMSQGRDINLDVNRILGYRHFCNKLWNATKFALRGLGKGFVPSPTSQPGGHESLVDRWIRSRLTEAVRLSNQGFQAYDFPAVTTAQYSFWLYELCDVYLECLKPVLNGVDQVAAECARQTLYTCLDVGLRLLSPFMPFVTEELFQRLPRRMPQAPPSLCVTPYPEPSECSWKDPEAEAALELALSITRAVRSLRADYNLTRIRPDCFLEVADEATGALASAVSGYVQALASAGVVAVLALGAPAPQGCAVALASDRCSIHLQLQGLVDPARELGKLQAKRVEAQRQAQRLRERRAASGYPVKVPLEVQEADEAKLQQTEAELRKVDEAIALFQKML

[8] = target: proteins of HEK293T cells transiently overexpressing caspase-6 (Homo sapiens, UniProt P31946); conditions: exp_ref Probe; protein YWHAB (P31946); analysis C6
proteins of HEK293T cells transiently overexpressing caspase-6 (Homo sapiens, UniProt P31946), sequence (P31946 whole entry): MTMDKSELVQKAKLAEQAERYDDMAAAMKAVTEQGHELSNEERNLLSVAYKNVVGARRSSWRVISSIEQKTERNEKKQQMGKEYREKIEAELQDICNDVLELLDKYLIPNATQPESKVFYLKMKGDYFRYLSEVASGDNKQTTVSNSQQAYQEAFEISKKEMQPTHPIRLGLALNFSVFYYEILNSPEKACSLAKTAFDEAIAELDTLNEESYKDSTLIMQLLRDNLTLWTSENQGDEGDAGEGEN

[9] = target: proteins of HEK293T cells transiently overexpressing caspase-6 (Homo sapiens, UniProt P36578); conditions: exp_ref Probe; protein RPL4 (P36578); analysis C6
[10] = target: proteins of HEK293T cells transiently overexpressing caspase-6 (Homo sapiens, UniProt P63104); conditions: exp_ref Probe; protein YWHAZ (P63104); analysis C6
proteins of HEK293T cells transiently overexpressing caspase-6 (Homo sapiens, UniProt P63104), sequence (P63104 whole entry): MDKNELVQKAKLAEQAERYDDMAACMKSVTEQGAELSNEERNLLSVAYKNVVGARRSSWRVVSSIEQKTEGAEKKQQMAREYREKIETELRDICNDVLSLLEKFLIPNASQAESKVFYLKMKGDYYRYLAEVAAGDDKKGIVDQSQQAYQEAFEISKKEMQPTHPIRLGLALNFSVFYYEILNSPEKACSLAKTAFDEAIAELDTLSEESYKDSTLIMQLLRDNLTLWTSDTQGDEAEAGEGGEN

[11] = target: proteins of HEK293T cells transiently overexpressing caspase-6 (Homo sapiens, UniProt Q07020); conditions: Probe; protein RPL18 Q07020

SMILES: C#CCOc1ccc([C@@H]2C[C@@H](C(=O)Nc3ccc(OC(F)(F)F)cc3)CN(S(=O)(=O)C=C)C2)cc1 (relative stereo) [13-t]
- enrich.exp.med [1]: -0.321
- enrich.exp.med ([2]; Probe, protein PCCA P05165): -2.194
- enrich.exp.med.lin ([2]; protein PCCA (P05165)): 0.2185
- enrich.exp.med.log2 ([2]; protein PCCA (P05165)): -2.194
- enrich.exp.med [3]: 0.866
- enrich.exp.med ([4]; exp_ref Probe, analysis C6): 0.3873
- enrich.exp.med.lin [4]: 1.308
- enrich.exp.med.log2 [4]: 0.3873
- enrich.exp.med [5]: 0.8492
- enrich.exp.med [6]: 0.2109
- enrich.exp.med [7]: -1.705
- enrich.exp.med [8]: -0.2081
- enrich.exp.med [9]: 0.4261
- enrich.exp.med [10]: 0.8069
- enrich.exp.med [11]: -0.6313

— paper PMC10176470, “Engaging a Non-catalytic Cysteine Residue Drives Potent and Selective Inhibition of Caspase-6” (Journal of the American Chemical Society, 2023)
